Source: patent US12503436B2, “Compounds and compositions for treating conditions associated with STING activity” (NOVARTIS PHARMA AG, priority 2021, dated 2025)

The compounds below were run against STING (Homo sapiens, UniProt Q86WV6, G230A/H232R/R293Q/R71H) (assay: STING reporter assay in THP1-Dual KO-IFNAR2 cells (2′3′cGAMP stimulation, luciferase reporter)). Details: 15 μM 2′3′cGAMP stimulation, 24 h, read-out: Pharmaron, THP1_IFNAR2 STING 24 h Luci Normalized: GeoMean EC50.
Assay type: cell-based
In short: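 THP1-Dual KO-IFNAR2 cells (2×10E6 cells/mL) with compounds at 0.0017-100 μM final, stimulated with 15 μM final 2′3′cGAMP delivered by Lipofectamine 2000; 24 h at 37 °C. Luciferase in supernatant read with QUANTI-Luc Plus; EC50 derived from luminescence.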

Chain of STING (Q86WV6 whole entry R71H/G230A/H232R/R293Q): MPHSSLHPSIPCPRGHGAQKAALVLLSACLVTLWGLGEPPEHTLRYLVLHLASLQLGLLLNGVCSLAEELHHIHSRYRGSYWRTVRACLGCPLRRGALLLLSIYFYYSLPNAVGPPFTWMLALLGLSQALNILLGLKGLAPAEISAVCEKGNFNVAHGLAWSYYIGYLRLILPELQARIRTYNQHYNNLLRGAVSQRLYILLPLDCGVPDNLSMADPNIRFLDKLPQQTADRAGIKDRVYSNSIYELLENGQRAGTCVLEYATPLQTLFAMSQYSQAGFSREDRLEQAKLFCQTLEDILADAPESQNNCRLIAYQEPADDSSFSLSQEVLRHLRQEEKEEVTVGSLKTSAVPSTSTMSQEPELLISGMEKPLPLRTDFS

Structure (SMILES) | EC50 [µM]
O=C(Nc1c[nH]c2ccc(CCOc3ccc(C(F)(F)F)cc3)cc12)C1(C(F)(F)F)CC1 [Compound 387, 1-(trifluoromethyl)-N-(5-(2-(4-(trifluoromethyl)phenoxy)ethyl)-1H-indol-3-yl)cyclopropane-1-carboxamide] | 0.2 to 1
O=C(Nc1c[nH]c2ccc(CCOc3ccc(C(F)(F)F)cc3)cc12)C1CC(F)(F)C1 [Compound 388, 3,3-difluoro-N-(5-(2-(4-(trifluoromethyl)phenoxy)ethyl)-1H-indol-3-yl)cyclobutane-1-carboxamide] | 0.2 to 1
CC(C)(C)C(=O)Nc1c[nH]c2ccc(CCOc3ccc(C(F)(F)F)cc3)cc12 [Compound 389, N-(5-(2-(4-(trifluoromethyl)phenoxy)ethyl)-1H-indol-3-yl)pivalamide] | 0.2 to 1
N#CC1CCC1C(=O)Nc1c[nH]c2ccc(CCOc3ccc(C(F)(F)F)cc3)cc12 (stereo not shown) [Compound 390, 2-cyano-N-(5-(2-(4-(trifluoromethyl)phenoxy)ethyl)-1H-indol-3-yl)cyclobutane-1-carboxamide] | 0.2 to 1
N#C[C@H]1C[C@@H]1C(=O)Nc1c[nH]c2ccc(CCOc3ccc(C(F)(F)F)cc3)cc12 [Compound 391, (1S,2S)-2-cyano-N-(5-(2-(4-(trifluoromethyl)phenoxy)ethyl)-1H-indol-3-yl)cyclopropane-1-carboxamide] | 0.04 to 0.2
C[C@H]1C[C@H](C(=O)Nc2c[nH]c3ccc(CCOc4ccc(C(F)(F)F)cc4)cc23)C1 [Compound 392, trans-3-methyl-N-(5-(2-(4-(trifluoromethyl)phenoxy)ethyl)-1H-indol-3-yl)cyclobutane-1-carboxamide] | 0.2 to 1
C[C@H]1C[C@@H](C(=O)Nc2c[nH]c3ccc(CCOc4ccc(C(F)(F)F)cc4)cc23)C1 [Compound 393, cis-3-methyl-N-(5-(2-(4-(trifluoromethyl)phenoxy)ethyl)-1H-indol-3-yl)cyclobutane-1-carboxamide] | 0.2 to 1
C[C@H]1C[C@@H]1C(=O)Nc1c[nH]c2ccc(CCOc3ccc(C(F)(F)F)cc3)cc12 [Compound 394, (1S,2S)-2-methyl-N-(5-(2-(4-(trifluoromethyl)phenoxy)ethyl)-1H-indol-3-yl)cyclopropane-1-carboxamide] | 0.04 to 0.2
CC1(F)CC(C(=O)Nc2c[nH]c3ccc(CCOc4ccc(C(F)(F)F)cc4)cc23)C1 (stereo not shown) [Compound 395, 3-fluoro-3-methyl-N-(5-(2-(4-(trifluoromethyl)phenoxy)ethyl)-1H-indol-3-yl)cyclobutane-1-carboxamide] | 0.2 to 1
CC1(C(=O)Nc2c[nH]c3ccc(CCOc4ccc(C(F)(F)F)cc4)cc23)CCCO1 (stereo not shown) [Compound 396, 2-methyl-N-(5-(2-(4-(trifluoromethyl)phenoxy)ethyl)-1H-indol-3-yl)tetrahydrofuran-2-carboxamide] | 0.2 to 1
CC1(C)CC1C(=O)Nc1c[nH]c2ccc(CCOc3ccc(C(F)(F)F)cc3)cc12 (stereo not shown) [Compound 397, 2,2-dimethyl-N-(5-(2-(4-(trifluoromethyl)phenoxy)ethyl)-1H-indol-3-yl)cyclopropane-1-carboxamide] | 0.2 to 1
N#CC1(C(=O)Nc2c[nH]c3ccc(CCOc4ccc(C(F)(F)F)cc4)cc23)CC1 [Compound 398, 1-cyano-N-(5-(2-(4-(trifluoromethyl)phenoxy)ethyl)-1H-indol-3-yl)cyclopropane-1-carboxamide] | 0.2 to 1
CC1(C(=O)Nc2c[nH]c3ccc(CCOc4ccc(C(F)(F)F)cc4)cc23)CC1 [Compound 399, 1-methyl-N-(5-(2-(4-(trifluoromethyl)phenoxy)ethyl)-1H-indol-3-yl)cyclopropane-1-carboxamide] | 0.2 to 1
O=C(Nc1c[nH]c2ccc(CCOc3ccc(C(F)(F)F)cc3)cc12)C1(F)CC1 [Compound 400, 1-fluoro-N-(5-(2-(4-(trifluoromethyl)phenoxy)ethyl)-1H-indol-3-yl)cyclopropane-1-carboxamide] | 0.2 to 1
O=C(Nc1c[nH]c2ccc(CCOc3ccc(C(F)(F)F)cc3)cc12)C1CCOCC1 [Compound 401, N-(5-(2-(4-(trifluoromethyl)phenoxy)ethyl)-1H-indol-3-yl)tetrahydro-2H-pyran-4-carboxamide] | 0.2 to 1
CC(=O)Nc1c(Br)[nH]c2ccc(OCCc3ccc(C(F)(F)F)cc3)cc12 [Compound 402, N-(2-bromo-5-(4-(trifluoromethyl)phenethoxy)-1H-indol-3-yl)acetamide] | 5 to 100
COCCOCC(=O)Nc1c[nH]c2ccc(OCc3ccc(C(F)(F)F)cc3)cc12 [Compound 404, 2-(2-methoxyethoxy)-N-(5-((4-(trifluoromethyl)benzyl)oxy)-1H-indol-3-yl)acetamide] | 1 to 5

Structure (SMILES) | EC50 [µM]
COCCOCC(=O)Nc1c[nH]c2ccc(O[C@H]3C[C@@H](c4ccc(C(F)(F)F)cc4)C3)cc12 [Compound 405, 2-(2-methoxyethoxy)-N-(5-(cis-3-(4-(trifluoromethyl)phenyl)cyclobutoxy)-1H-indol-3-yl)acetamide] | 0.2 to 1
COCCOCC(=O)Nc1c[nH]c2ccc(CCOc3ccc(C(F)(F)F)cc3)cc12 [Compound 406, 2-(2-methoxyethoxy)-N-(5-(2-(4-(trifluoromethyl)phenoxy)ethyl)-1H-indol-3-yl)acetamide] | 0.2 to 1
COCCOCC(=O)Nc1c[nH]c2ccc(OCCc3ccc(C(F)(F)F)cc3)cc12 [Compound 407, 2-(2-methoxyethoxy)-N-(5-(4-(trifluoromethyl)phenethoxy)-1H-indol-3-yl)acetamide] | 0.2 to 1
COCCOCC(=O)Nc1c[nH]c2ccc(OCC[C@@H]3C[C@@H]4CN(CC(F)(F)F)C[C@@H]4C3)cc12 [Compound 408, 2-(2-methoxyethoxy)-N-(5-(2-((3aR,5r,6aS)-2-(2,2,2-trifluoroethyl)octahydrocyclopenta[c]pyrrol-5-yl)ethoxy)-1H-indol-3-yl)acetamide] | 0.04 to 0.2
CC(=O)N[C@H]1C[C@@](C)(C(=O)Nc2c[nH]c3ccc(O[C@H]4C[C@@H](c5ccc(C(F)(F)F)cc5)C4)cc23)C1 [Compound 412, cis-3-acetamido-1-methyl-N-(5-(cis-3-(4-(trifluoromethyl)phenyl)cyclobutoxy)-1H-indol-3-yl)cyclobutane-1-carboxamide] | 1 to 5
CC(=O)N[C@H]1C[C@](C)(C(=O)Nc2c[nH]c3ccc(O[C@H]4C[C@@H](c5ccc(C(F)(F)F)cc5)C4)cc23)C1 [Compound 413, trans-3-acetamido-1-methyl-N-(5-(cis-3-(4-(trifluoromethyl)phenyl)cyclobutoxy)-1H-indol-3-yl)cyclobutane-1-carboxamide] | 1 to 5
C[C@]1(C(=O)Nc2c[nH]c3ccc(OCc4ccc(C(F)(F)F)cc4)cc23)C[C@@H](O)C1 [Compound 414, cis-3-hydroxy-1-methyl-N-(5-((4-(trifluoromethyl)benzyl)oxy)-1H-indol-3-yl)cyclobutane-1-carboxamide] | 0.2 to 1
C[C@]1(C(=O)Nc2c[nH]c3ccc(OCc4ccc(C(F)(F)F)cc4)cc23)C[C@H](O)C1 [Compound 415, trans-3-hydroxy-1-methyl-N-(5-((4-(trifluoromethyl)benzyl)oxy)-1H-indol-3-yl)cyclobutane-1-carboxamide] | 1 to 5
C[C@]1(C(=O)Nc2c[nH]c3ccc(OCc4ccc(C(F)(F)F)cc4)cc23)C[C@H](CO)C1 [Compound 416, cis-3-(hydroxymethyl)-1-methyl-N-(5-((4-(trifluoromethyl)benzyl)oxy)-1H-indol-3-yl)cyclobutane-1-carboxamide] | 0.2 to 1
C[C@]1(C(=O)Nc2c[nH]c3ccc(OCc4ccc(C(F)(F)F)cc4)cc23)C[C@@H](CO)C1 [Compound 417, trans-3-(hydroxymethyl)-1-methyl-N-(5-((4-(trifluoromethyl)benzyl)oxy)-1H-indol-3-yl)cyclobutane-1-carboxamide] | 0.2 to 1
C[C@]1(C(=O)Nc2c[nH]c3ccc(OCc4ccc(C(F)(F)F)cc4)cc23)CC[C@H](O)CC1 [Compound 418, trans-4-hydroxy-1-methyl-N-(5-((4-(trifluoromethyl)benzyl)oxy)-1H-indol-3-yl)cyclohexane-1-carboxamide] | 0.2 to 1
C[C@]1(C(=O)Nc2c[nH]c3ccc(OCc4ccc(C(F)(F)F)cc4)cc23)CC[C@@H](O)CC1 [Compound 419, trans-4-hydroxy-1-methyl-N-(5-((4-(trifluoromethyl)benzyl)oxy)-1H-indol-3-yl)cyclohexane-1-carboxamide] | 0.2 to 1
O=C(Nc1c[nH]c2ccc(O[C@H]3C[C@@H](c4ccc(C(F)(F)F)cc4)C3)cc12)C1(CO)CCC1 [Compound 420, 1-(hydroxymethyl)-N-(5-(cis-3-(4-(trifluoromethyl)phenyl)cyclobutoxy)-1H-indol-3-yl)cyclobutane-1-carboxamide] | 0.2 to 1
CC1(C(=O)Nc2c[nH]c3ccc(OCc4ccc(C(F)(F)F)cc4)cc23)CN(CC(F)F)C1 [Compound 421, 1-(2,2-difluoroethyl)-3-methyl-N-(5-((4-(trifluoromethyl)benzyl)oxy)-1H-indol-3-yl)azetidine-3-carboxamide] | 0.2 to 1
COCCN1CC(C)(C(=O)Nc2c[nH]c3ccc(O[C@H]4C[C@@H](c5ccc(C(F)(F)F)cc5)C4)cc23)C1 [Compound 422, 1-(2-methoxyethyl)-3-methyl-N-(5-(cis-3-(4-(trifluoromethyl)phenyl)cyclobutoxy)-1H-indol-3-yl)azetidine-3-carboxamide] | 1 to 5
C[C@@H]1OC[C@H]1C(=O)Nc1c[nH]c2ccc(O[C@H]3C[C@H](c4ccc(C(F)(F)F)cc4)C3)cc12 [Compound 423, (2S,3R)-2-methyl-N-(5-(trans-3-(4-(trifluoromethyl)phenyl)cyclobutoxy)-1H-indol-3-yl)oxetane-3-carboxamide] | 0.2 to 1
C[C@H]1OC[C@H]1C(=O)Nc1c[nH]c2ccc(O[C@H]3C[C@H](c4ccc(C(F)(F)F)cc4)C3)cc12 [Compound 424, (2R,3R)-2-methyl-N-(5-(trans-3-(4-(trifluoromethyl)phenyl)cyclobutoxy)-1H-indol-3-yl)oxetane-3-carboxamide] | 0.2 to 1
